Laboratory results: patent US20100022526A1, “PYRIDAZINE DERIVATIVES, PROCESSES FOR THEIR PREPARATION AND THEIR USE AS FUNGICIDES” (SYNGENTA CROP PROTECTION, INC., priority 2007, published 2010)

Assays:
[1] = test system: Septoria tritici; assay: Sentoria tritici/wheat/Preventive (Action against Septoria Leaf Spot on Wheat); assay type: in vivo; settings: Zymoseptoria tritici, preventive spray, wheat plants cv. Riband, inoculated one day after application, assessed 16-18 days after inoculation, untreated controls infected over 80%, read-out: inhibits fungal infestation
Experimental: Sentoria tritici/wheat/Preventive (Action against Septoria Leaf Spot on Wheat) 2 weeks old wheat plants cv. Riband are treated with the formulated test compound in a spray chamber. One day after application wheat plants are inoculated by spraying a spore suspension (10^6 conidia/ml) on the test plants. After an incubation period of 1 day at 22° C./21° C. and 95% r. h. plants are kept at 22° C./21° C. and 70% r.h. in a greenhouse. The disease incidence is assessed 16-18 days after inoculation.

[2] = test system: Alternaria solani; assay: Alternaria solani/tomato/Preventive (Action against Alternaria on Tomato); assay type: in vivo; settings: preventive spray, tomato plants cv. Roter Gnom, inoculated two days after application, assessed after 4 days, untreated controls infected over 80%, read-out: inhibit fungal infestation
Experimental: (§1) Alternaria solani/tomato/Preventive (Action against Alternaria on Tomato) 4 weeks old tomato plants cv. Roter Gnom are treated with the formulated test compound in a spray chamber. Two days after application tomato plants are inoculated by spraying a spore suspension on the test plants. After an incubation period of 4 days at 22° C./18° C. and 95% r. h. in a greenhouse the disease incidence is assessed.

[3] = test system: Pyrenophora teres (Helminthosporium teres); assay: Pyrenophora teres (Helminthosporium teres)/barley/preventive (Action against Net Blotch on Barley); assay type: in vivo; settings: preventive spray, barley plants cv. Regina, inoculated two days after application, assessed after 4 days, untreated controls infected over 80%, read-out: inhibit fungal infestation
Experimental: Pyrenophora teres (Helminthosporium teres)/barley/preventive (Action against Net Blotch on Barley) 1-week-old barley plants cv. Regina are treated with the formulated test compound in a spray chamber. Two days after application barley plants are inoculated by spraying a spore suspension (2.6×10^4 conidia/ml) on the test plants. After an incubation period of 4 days at 20° C. and 95% r. h. the disease incidence is assessed.

[4] = test system: Puccinia recondita; assay: Puccinia recondita/wheat/preventive (Action against Brown Rust on Wheat); assay type: in vivo; settings: preventive spray, wheat plants cv. Arina, inoculated one day after application, assessed 11 days after inoculation, untreated controls infected over 80%, read-out: inhibits fungal infestation
Experimental: Puccinia recondita/wheat/preventive (Action against Brown Rust on Wheat) 1 week old wheat plants cv. Arina are treated with the formulated test compound in a spray chamber. One day after application wheat plants are inoculated by spraying a spore suspension (1×105 uredospores/ml) on the test plants. After an incubation period of 1 day at 20° C. and 95% r. h. plants are kept for 10 days 20° C./18° C. (day/night) and 60% r.h. in a greenhouse. The disease incidence is assessed 11 days after inoculation.

[5] = test system: Uncinula necator; assay: Uncinula necator/grape/preventive (Action against Powdery Mildew on Grape); assay type: in vivo; settings: Erysiphe necator, preventive spray, grape seedlings cv. Gutedel, inoculated one day after application, assessed after 7 days, untreated controls infected over 80%, read-out: inhibit fungal infestation
Experimental: Uncinula necator/grape/preventive (Action against Powdery Mildew on Grape) 5 weeks old grape seedlings cv. Gutedel are treated with the formulated test compound in a spray chamber. One day after application grape plants are inoculated by shaking plants infected with grape powdery mildew above the test plants. After an incubation period of 7 days at 24° C./22° C. and 70% r. h. under a light regime of 14/10 h (light/dark) the disease incidence is assessed.

[6] = test system: Botrytis cinerea; assay: Botrytis cinerea/tomato/preventive (Action against Botrytis on Tomato); assay type: in vivo; settings: preventive spray, tomato plants cv. Roter Gnom, inoculated two days after application, assessed after 3 days, untreated controls infected over 80%, read-out: inhibit fungal infestation
Experimental: as §1, with “Botrytis cinerea/tomato/preventive (Action” for “Alternaria solani/tomato/Preventive (Action”, “against Botrytis” for “against Alternaria”, “of 3” for “of 4”, “at 20°” for “at 22° C./18°”

[7] = test system: Magnaporthe grisea (Pyricularia oryzae); assay: whole plant or invertebrate; assay type: in vivo; settings: read-out: inhibit fungal infestation

COc1nnc(Cl)c(-c2c(F)cc(F)cc2F)c1-c1ccc(Br)cc1 [I.l. 199, 4-(4-bromophenyl)-6-chloro-3-methoxy-5-(2,4,6-trifluorophenyl)-pyridazine]
inhibition at 200 ppm [1]: ≥ 80%
inhibition at 200 ppm [2]: ≥ 80%
melting point: 113 to 119 °C
inhibition at 200 ppm [3]: ≥ 80%
inhibition at 200 ppm [4]: ≥ 80%
inhibition at 200 ppm [5]: ≥ 80%
inhibition at 200 ppm [6]: ≥ 80%
inhibition at 200 ppm [7]: ≥ 80%
